The text below walks through data of patent US20230145823A1 (priority 2020, published 2023).

Where two headings read alike, the source gives them in different places.

For data set [1], the system named is NO. Type of data set: cell-based. Particulars: RAW264.7 cells, LPS, 25 μM furosemide, 24 h.
The subject of data set [2] is TNF-α. In kind it is cell-based. As to conditions: RAW264.7 cells, LPS, 25 μM furosemide, 24 h.
The next data set has as its system TLR4. Put plainly: LPS-induced TLR4 expression in RAW264.7 macrophage cells, flow cytometry. In kind it is cell-based. Particulars: RAW264.7 cells stimulated with LPS. The protocol:
RAW264.7 cells were purchased from ATCC and maintained in Dulbecco's Modified Eagle's Medium (DMEM) containing foetal bovine serum (FBS) at a final concentration of 10%. RAW264.7 cells were seeded in 12-well plates at 0.25×10^6 cells/well seeding density, one day before experiments. […]; conditioned media and lysates were harvested for analysis.
Cells were harvested and re-suspended with staining buffer. Cells were stained with antibody (1:100) by incubating at 4° C. for 30 min in the dark. Stained cells were centrifuged, and the supernatant was discarded. The cell pellets were then re-suspended in cell flow buffer, transferred to FACS tubes and analyzed by flow cytometry within 48 h. To all cells in the experiment, Fc blocker was added.
LPS is recognized by the cell surface pattern-recognition receptors such as the toll-like receptor 4 protein (TLR4) and triggers downstream signaling pathways. LPS induces expression of the pro-inflammatory cytokine IFNγ. IFNγ is known to increase TLR4 expression which may then promote the response to LPS stimulation. […]

A further data set relates to pro-IL-1β. The data set can be described thus: pro-IL-1β expression in differentiated THP-1 macrophages, Western blot. Type of data set: cell-based. Particulars: PMA-differentiated THP-1 cells, LPS/IFNγ, 48 h. The method, then: (§1) THP-1 cells (ATCC) were maintained in RPMI 1,640 medium supplemented with 2-mercaptoethanol at a final concentration of 0.05 mM and FBS at a final concentration of 10%. THP-1 cells were seeded in each well of a 12-well tissue culture plate at a density 0.5×10^6 cells/mL, one day before experiments. THP-1 monocytes were differentiated by 150 nM PMA (phorbol 12-myristate 13-acetate) for 24 h.
Cells were washed twice with ice-cold PBS and harvested in RIPA buffer supplemented with a protease inhibitor cocktail. The whole-cell extracts were then centrifuged at 22,000×g for 20 min at 4° C. to remove cell debris. Protein concentrations were quantified using a Micro BCA protein assay kit. The absorbance was measured at 595 nm using a microplate reader. Equal amounts of cellular protein were separated by sodium dodecyl sulfate-polyacrylamide gel electrophoresis (SDS-PAGE) and transferred onto polyvinylidene difluoride (PVDF) membranes at 100 V for 90 min. The SDS-PAGE was performed with 10% polyacrylamide gel for iNOS and 12.5% for pro-IL-1β. The membranes were blocked for 1 h in Tris-buffered saline (TBS), pH 7.4, with 0.1% Tween-20 (TBS-T) containing 10% skim milk. […]
(In general: Immunoblotting shows a protein as a band on a membrane.)

Data set [3] has as its system NO. The data set can be described thus: LPS-induced NO production from SIM-A9 cells, Griess assay. Particulars: SIM-A9 cells stimulated with LPS. Type of data set: cell-based. The method, then:
Nitric oxide production from the conditioned media of RAW264.7 and SIM-A9 cell cultures was examined by a Griess assay. Conditioned medium and sulfanilamide were mixed in a microwell plate to form a transient diazonium salt. Then, N-naphtyl-ethylenediamine was added to all wells to form a stable azo compound by incubating for 5-10 min in the dark at room temperature. The absorbance was measured between 520 nm and 550 nm. The concentration of NO production was quantified by being plotted against a standard curve.
(§2) SIM-A9 (ATCC) cells were maintained in Dulbecco's modified eagle medium: nutrient mixture F-12 (DMEM-F12) with 10% foetal bovine serum, 5% horse-serum and antibiotic-antimycotic. SIM-A9 cells were seeded 24 h before the experiment. Culturing medium was replaced with DMEM-F12 medium containing 5% FBS+2.5% horse serum with required LPS concentration (final volume was one mL/well). The conditioned media and lysates were harvested for cytokine and cell marker examination.
. IL-1β plays a key role in modulating inflammatory response as a downstream pro-inflammatory marker of the TLR4 signaling pathway by using differentiated THP-1 monocytes. The expression of IL-1β precursor protein (pro-IL-1β) from THP-1 macrophage cells was studied using Western blot analysis. […]. […]
On the technique in general: The Griess reaction detects nitrite, a stable product of nitric oxide.

In another data set the test system is IL-6. Put plainly: LPS-induced IL-6 production from SIM-A9 cells, ELISA. In kind it is cell-based. Particulars: SIM-A9 cells stimulated with LPS. The protocol:
(§3) Cytokines were quantified using ELISA kits following the manufacturer's instructions. Briefly, the high-binding plates were coated at 100 μL/well with diluted capture antibodies (1:250) at 4° C. overnight. The coated plates were then blocked with the diluent for 1 h before assay. Each sample was diluted accordingly and added to the plates for a 2 h incubation period at room temperature. Plates were then washed with 250 μL/well PBS with 0.05% Tween-20 and incubated with detection antibodies (1:250 in assay diluent) for 1 h at room temperature. After another washing step, 1:250 diluted avidin-HRP (horseradish peroxidase) was added and incubated for 30 min. Next, 100 μL TMB-substrate (3,3′,5,5′-tetramethylbenzidine) was added and the plate was incubated in the dark until the signal was sufficiently developed. […]. Absorbance was measured at 450 nm with a correction of 570 nm using a plate reader.
as §2
. […]
(In an ELISA, binding on a coated surface is turned into a signal by an enzyme label.)

Data set [4] has as its system TNF-α. The data set can be described thus: LPS-induced TNF-α production from SIM-A9 cells, ELISA. Type of data set: cell-based. As to conditions: SIM-A9 cells stimulated with LPS. The protocol:
as §3, §2
. […]

The test system of another data set is IL-4. The data set can be described thus: IL-4 in conditioned medium of differentiated THP-1 cells, Multiplex assay using flow cytometry. In kind it is cell-based. Particulars: LPS and IFNγ, 48 h. The method, then: as §1
(§4) . The levels of anti-inflammatory cytokines from the conditioned medium of differentiated THP-1 cells were measured after 48 h of stimulation with LPS and IFNγ by Multiplex assay using flow cytometry. […]

The test system of data set [5] is interleukin-1 receptor antagonist (IL-1RA). Put plainly: IL-1RA in conditioned medium of differentiated THP-1 cells, Multiplex assay using flow cytometry. As to conditions: LPS and IFNγ, 48 h. Type of data set: cell-based. The protocol: as §1
The levels of anti-inflammatory cytokines from the conditioned medium of differentiated THP-1 cells were measured after 48 h of stimulation with LPS and IFNγ by Multiplex assay using flow cytometry.

A further data set deals with arginase. Put plainly: Arginase in conditioned medium of differentiated THP-1 cells, Multiplex assay using flow cytometry. Type of data set: cell-based. As to conditions: LPS and IFNγ, 48 h. The method, then:
as §1, §4

Data set [6] deals with inducible nitric oxide synthase (iNOS). As to conditions: RAW264.7, LPS+IFNγ, 25 μM furosemide, 24 h.
Method: Cells were washed twice with ice-cold PBS and harvested in RIPA buffer supplemented with a protease inhibitor cocktail. The whole-cell extracts were then centrifuged at 22,000×g for 20 min at 4° C. to remove cell debris. Protein concentrations were quantified using a Micro BCA protein assay kit. The absorbance was measured at 595 nm using a microplate reader. Equal amounts of cellular protein were separated by sodium dodecyl sulfate-polyacrylamide gel electrophoresis (SDS-PAGE) and transferred onto polyvinylidene difluoride (PVDF) membranes at 100 V for 90 min. The SDS-PAGE was performed with 10% polyacrylamide gel for iNOS and 12.5% for pro-IL-1β. The membranes were blocked for 1 h in Tris-buffered saline (TBS), pH 7.4, with 0.1% Tween-20 (TBS-T) containing 10% skim milk. The membrane blot was then incubated overnight at 4° C. with primary antibodies against iNOS (1:1,000), IL-1(3 (1:1,000), actin (1:5,000) and GAPDH (1:5,000) in TBS-T containing 5% skim milk. The membrane was washed with TBS-T 3×10 mins and incubated with goat anti-rabbit IgG-horseradish peroxidase (1:5,000) for 1 hour. After the washing step, the immunoblotting was visualized by chemiluminescence HRP-substrate.
For data set [7] the following is noted: cited from earlier work.
For data set [8] the following is noted: previous studies; cited from earlier work.
The conditions of data set [9]: cited from earlier work. This is another data set of the same source.
Another data set deals with COVID-19. As to conditions: cited from earlier work.
Where [10] appears, read: Grogono et al. 2018, nebulized 40 mg in 4 mL 0.9% saline, healthy adults, multiple dosing per day.
Where [11] appears, read: 21 patients with severe COVID-19, within a few days.
[12] abbreviates: 21 patients with severe COVID-19.

In the case of `NS(=O)(=O)c1cc(C(=O)O)c(NCc2ccco2)cc1Cl` [furosemide, 4-chloro-N-furfuryl-5-sulfamoylanthranilic acid], the “production of NO” value in the data set with NO [1] is reported as “significantly decreased”; in the data set with NO [1] (listed as Furosemide) it was “decreases”; in the data set with NO [3] it was “significantly reduced”. Also, the “production of TNF-α” value is listed as “significantly decreased” in the data set on TNF-α [2], “decreases” with TNF-α [2] (listed as Furosemide) and “significantly reduced” in the data set with TNF-α [4]. For the same molecule, the “LPS-induced TLR4 expression (TLR4+ cell population)” value with TLR4 is given as “completely blocked”; in the data set on TLR4 (listed as Furosemide), “significantly decreases”. In addition, the “expression of pro-IL-1β” value with pro-IL-1β is “significantly decreases”. For the same molecule, in the data set with IL-6, the “production of IL-6” value was “significantly reduced”. The “expression of IL-4” value in the data set with IL-4 is on record as “induces”. Besides, the “expression of IL-1RA” value in [5] is on record as “induces”. Besides, the expression of arginase result in the data set on arginase is “induces”. For the same molecule, the “expression of iNOS” value in data set [6] was “suppress”. Besides, the solution concentration achievable is 10 mg/mL in data set [7] (non-salt furosemide, aqueous isotonic saline, pH between 8.0 and 9.3); 10 mg/mL in data set [7] (weakly basic buffer solution (pH 8)). The “time to be shuttled from the lung and excreted” value in data set [8] is 4 to 6 h. Also, in data set [9] (setting [10]), the “relief of experimentally induced air hunger” value was “effective relief”. Also, the untoward effects entry in [9] (setting [10]) is “no untoward effects”. For the same molecule, the “dose shown safe by inhalation” value in data set [9] (inhalation, previous studies) was “up to 120 mg per dose”. The “lung IL-6, IL-8, and TNF-α levels” value in data set [9] (inhaled furosemide, patients with respiratory conditions) is recorded as “reduction”. In addition, in [9] (patients receiving inhaled furosemide up to 40 mg), the urge to urinate entry was “no increase”.
Consider “tocilizumab: Roche's tocilizumab (Actemra), an IL-6 inhibitor”, for which, in the data set with COVID-19 (setting [11]), the all other symptoms result is listed as “improved remarkably” and the fevers result is on record as “returned to normal”. In addition, in the data set on COVID-19 (setting [12]), the adverse reactions result is listed as “no obvious adverse reactions” and the “patients who lowered their oxygen intake” value is 75%. In the data set with COVID-19 (nineteen discharged patients), the “average time to discharge following treatment” value is on record as 13.5 days.
